Test results published in patent US20260365656A1, “PYRAZOLE DERIVATIVE, AND PHARMACEUTICALLY ACCEPTABLE SALT, STEREOISOMER, PHARMACEUTICAL COMPOSITION AND USE THEREOF” (STARG (WUHAN) PHARMACEUTICAL TECHNOLOGY CO., LTD, priority 2023, published 2026).
Where a name gives a salt, the structure may show the parent alone.

What was measured:
CDK1/cyclin B1 = target: T1, CDK1/cyclin B1 (Homo sapiens, UniProt P06493); assay: In Vitro CDK1/Cyclin B1 Enzyme Activity Assay (TR-FRET); type: biochemical; settings: in words
T1 construct: purchased Carna Biosciences
Description: Experimental Example 2: In Vitro CDK1/Cyclin B1 Enzyme Activity Assay
CDK1/cyclin B1 was purchased from Carna Biosciences. Ulight-4E-BP1 peptide, Eu-anti-phospho-tyrosine antibody, and 1× detection buffer were purchased from PerkinElmer. High-purity ATP was purchased from Promega. EDTA was purchased from Sigma. Nivo multimode plate reader (PerkinElmer) was used.
Preparation of Kinase Buffer Solution: The kinase buffer solution consisted 50 mM HEPES, 1 mM EDTA, 10 mM MgCl2, and 0.01% Brij-35, with pH of 7.4. 2.38 g HEPES, 58 mg EDTA, 406 mg MgCl2, and 20 mg Brij-35 were added to 200 mL buffer, and the pH was adjusted to 7.4.
The stop solution was prepared by mixing 100 μL of 1 M EDTA stock solution with 0.625 μL of 1× detection buffer solution and 1725 μL of distilled water.
The enzyme, Ulight-4E-BP1 peptide, ATP, and the inhibitor were diluted using the kinase buffer solution.
The Eu-anti-phospho-tyrosine antibody was diluted to a concentration of 8 nM/L using the detection buffer solution.
The test compound was serially diluted 5-fold using a multichannel pipette to the 8th concentration, i.e., from 4 μM to 0.0512 nM. The final concentration of DMSO was 4%, and the experiment was set up with duplicate wells. 2.5 μL of each gradient concentration of the inhibitor, 5 μL of CDK1/cyclin B1 enzyme (0.5 ng), and 2.5 μL of a mixture of substrate and ATP (4 mM ATP, 200 nM Ulight-4E-BP1 peptide) were added to a microplate, resulting in a final concentration gradient of the compound from 1 μM to 0.0128 nM, with final ATP and substrate concentrations of 1 mM and 50 nM, respectively. The reaction system was incubated at 25 °C for 60 minutes. After the reaction, 5 μL of the stop solution was added to each well, and further reacted at 25 °C for 5 minutes to terminate the reaction. Then 5 μL of Eu-anti-phospho-tyrosine antibody dilution was added to each well, and the mixture was incubated at 25 °C for 60 minutes. Data were collected using the PerkinElmer Nivo multimode plate reader in TR-FRET mode (excitation wavelength: 320 nm; emission wavelengths: 615 nm and 665 nm).
The raw data were converted to inhibition rates using the equation (Sample−Min)/(Max−Min)×100%. The IC50 value was obtained by fitting the data to a four-parameter curve (using log(inhibitor) vs. response—Variable slope model in GraphPad Prism). Table 1 provides the enzyme inhibitory activity of the compounds of the present application against CDK1/cyclin B1.

[1] = Pharmacokinetic Study of Test Compounds Administered Orally and Intravenously in Mice; type: in vivo, mouse (ICR, male); settings: ICR mice
From the text: Experimental Example 5: Pharmacokinetic Study of Test Compounds Administered Orally and Intravenously in Mice
This study used ICR male mice as test animals. The plasma concentrations of the test compounds and the reference compound in mice were quantitatively determined at different time points using the LC-MS/MS method following intravenous injection or oral administration to evaluate the pharmacokinetic characteristics of the test compounds in mice.
ICR mice (male, 20-30 g, 6-8 weeks old, Beijing Charles River).
A clear solution of the test compound was administered to ICR mice (fasted overnight or fed) via tail vein injection or oral gavage. For intravenous injection, blood samples (50 μL) were collected via cheek puncture at 0 h (pre-dose) and at 0.083, 0.25, 0.5, 1, 2, 4, 6, 8, and 24 h post-dose into anticoagulant tubes containing sodium heparin. The mixtures were thoroughly vortexed at 4 °C and centrifuged at 6000 rpm for 3 minutes. For oral gavage, blood samples were collected via cheek puncture at 0 h (pre-dose) and at 0.083, 0.25, 1, 2, 4, 6, 8, and 24 h post-dose into anticoagulant tubes containing sodium heparin. The mixtures were vortexed thoroughly, and centrifuged at 6000 rpm for 3 minutes. Plasma drug concentrations were determined using the LC-MS/MS method. Pharmacokinetic parameters were calculated using Phoenix WinNonlin 8.2.0 pharmacokinetic software with a non-compartmental model and linear-logarithmic trapezoidal rule.

T1 sequence (P06493 whole entry): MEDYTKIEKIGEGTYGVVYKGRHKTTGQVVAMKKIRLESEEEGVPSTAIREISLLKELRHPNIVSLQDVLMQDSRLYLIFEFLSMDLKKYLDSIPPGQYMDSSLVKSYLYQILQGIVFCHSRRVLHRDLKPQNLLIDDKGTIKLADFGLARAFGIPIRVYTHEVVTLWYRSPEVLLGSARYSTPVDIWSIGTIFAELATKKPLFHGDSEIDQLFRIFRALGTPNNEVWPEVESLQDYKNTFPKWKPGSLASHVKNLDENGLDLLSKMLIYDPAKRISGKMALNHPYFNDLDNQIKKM
T1 sequence (P14635 whole entry partner): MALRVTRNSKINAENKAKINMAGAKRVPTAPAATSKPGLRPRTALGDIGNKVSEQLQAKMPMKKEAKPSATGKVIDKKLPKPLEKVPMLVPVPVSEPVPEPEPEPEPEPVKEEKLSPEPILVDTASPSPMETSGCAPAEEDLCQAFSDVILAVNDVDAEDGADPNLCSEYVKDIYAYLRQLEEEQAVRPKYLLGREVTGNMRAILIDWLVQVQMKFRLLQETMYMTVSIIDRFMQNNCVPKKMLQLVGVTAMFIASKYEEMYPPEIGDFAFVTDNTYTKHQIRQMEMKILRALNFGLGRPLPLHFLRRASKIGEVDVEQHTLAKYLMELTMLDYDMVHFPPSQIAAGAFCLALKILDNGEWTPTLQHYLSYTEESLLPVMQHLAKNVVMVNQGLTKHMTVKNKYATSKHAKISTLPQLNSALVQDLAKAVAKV

CONCc1nn2ccnc(Nc3cc([C@H]4CC[C@@H](OC(=O)NC(C)C)C4)[nH]n3)c2c1F [Compound 5]
selectivity for CDK2 over CDK1 compared to PF-07104091 (CDK1/cyclin B1): superior selectivity compared to PF-07104091

CON(C)Cc1nn2ccnc(Nc3cc([C@H]4CC[C@@H](OC(=O)NC(C)C)C4)[nH]n3)c2c1F [Compound 6]
selectivity for CDK2 over CDK1 compared to PF-07104091 (CDK1/cyclin B1): superior selectivity compared to PF-07104091

CONCc1nn2ccnc(Nc3cc([C@H]4CC[C@@H](OC(=O)NC(C)C)C4)[nH]n3)c2c1C [Formate salt of compound 1]
selectivity for CDK2 over CDK1 compared to PF-07104091 (CDK1/cyclin B1): superior selectivity compared to PF-07104091

CON(C)Cc1nn2ccnc(Nc3cc([C@H]4CC[C@@H](OC(=O)NC(C)C)C4)[nH]n3)c2c1C [Formate salt of compound 2]
selectivity for CDK2 over CDK1 compared to PF-07104091 (CDK1/cyclin B1): superior selectivity compared to PF-07104091

CNOCc1nn2ccnc(Nc3cc([C@H]4CC[C@@H](OC(=O)NC(C)C)C4)[nH]n3)c2c1F [Hydrochloride salt of Compound 7]
selectivity for CDK2 over CDK1 compared to PF-07104091 (CDK1/cyclin B1): superior selectivity compared to PF-07104091

CNOCc1nn2ccnc(Nc3cc([C@H]4CC[C@@H](OC(=O)NC(C)C)C4)[nH]n3)c2c1C [Hydrochloride salt of compound 3]
selectivity for CDK2 over CDK1 compared to PF-07104091 (CDK1/cyclin B1): superior selectivity compared to PF-07104091

COCc1cc(C(=O)Nc2cc([C@H]3CC[C@@H](OC(=O)NC(C)C)C3)[nH]n2)n(C)n1 [PF-07104091]
Apparent volume of distribution Vdss ([1]; intravenous, 5 mg/Kg): 11.8 L/kg
Area under plasma concentration-time curve AUC0-last ([1]; intravenous, 5 mg/Kg): 1645 ng·h/mL
Clearance CL ([1]; intravenous, 5 mg/Kg): 50.3 mL/min/kg
Half-life T1/2 ([1]; intravenous, 5 mg/Kg): 2.68 h
Bioavailability F ([1]; oral 30 mg/Kg vs intravenous 5 mg/Kg): 76.2%
Area under plasma concentration-time curve AUC0-last ([1]; oral, 30 mg/Kg): 7524 ng·h/mL
Peak concentration Cmax ([1]; oral, 30 mg/Kg): 6317 ng/mL
Time to peak Tmax ([1]; oral, 30 mg/Kg): 0.25 h
